According to US7915291B2, “Hepatitis C virus inhibitors” (Bristol-Myers Squibb Company, priority 2002, dated 2011):
Like-named read-outs stand apart in the source and are kept apart here.

Columns and labels:
[1] = biological target: HCV NS3/4A protease complex, BMS strain (UniProt P27958, C1454S/C1711G, species not given/STRAIN_BMS); experiment: Recombinant HCV NS3/4A protease complex FRET peptide assay (BMS strain); assay type: biochemical, HCV genotype 1a
Summary of the method: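 Percent inhibition taken from the linear-range fluorescence slope relative to uninhibited control, read kinetically for about 15 min at 25° C. Enzyme (2-3 nM, BMS NS3/4A complex, lysine-tailed, Ni-NTA purified) met compound for 1 min before 2 μM FRET depsipeptide substrate started cleavage.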

[2] = test system: HCV replicon in Huh7 cells; experiment: HCV replicon cell-based assay; parameters: species or system HCV strain 1B; conditions: Hepatitis C virus, Huh-7; HCV replicon, Huh7 cells; read-out: EC50 range
[3] = NS3/4A BMS strain; read-out: IC50 range
[4] = read-out: IC50 range; NS3/4A BMS strain

SMILES	IC50 [1, 3]	EC50 [2]	IC50 [1, 4]
C=C[C@@H]1C[C@]1(NC(=O)[C@@H]1C[C@@H](Oc2nccc3ccc(F)cc23)CN1C(=O)[C@@H](NC(=O)OC(C)(C)C)C(C)(C)C)C(=O)NS(=O)(=O)C1CC1 [Compound 257]	< 100 nM	< 100 nM	
C=C[C@@H]1C[C@]1(NC(=O)[C@@H]1C[C@@H](Oc2nccc3ccccc23)CN1C(=O)[C@@H](NC(=O)CC(C)(C)C)C(C)(C)C)C(=O)NS(=O)(=O)C1CC1 [Compound 130]	< 100 nM	100 to 1000 nM	
C=CC1C[C@]1(NC(=O)[C@@H]1C[C@@H](Oc2cc(C(F)(F)F)nc3ccc(F)cc23)CN1C(=O)[C@@H](NC(=O)OC(C)(C)C)C(C)(C)C)C(=O)NS(=O)(=O)C1CC1 (stereo partly drawn) [Compound 238, BOCNH-P3(L-t-BuGly)-P2[(4R)-(2-trifluoro-6-fluoroquinoline-4-oxo)-S-proline]-P1(1R,2S VinylAcca)-CONHSO2Cyclopropane]	< 100 nM	100 to 1000 nM	
C=C[C@@H]1C[C@]1(NC(=O)[C@@H]1C[C@@H](Oc2nccc3ccccc23)CN1C(=O)[C@@H](NC(=O)Oc1ccccc1OC)C(C)(C)C)C(=O)NS(=O)(=O)C1CC1 [Compound 127]	< 100 nM	100 to 1000 nM	
C=C[C@@H]1C[C@]1(NC(=O)[C@@H]1C[C@@H](Oc2cncc(-c3ccncc3)c2)CN1C(=O)[C@@H](NC(=O)OC(C)(C)C)C(C)(C)C)C(=O)NS(=O)(=O)C1CC1 [Compound 422]	< 100 nM	1000 to 10000 nM	
C=CC1C[C@]1(NC(=O)[C@@H]1C[C@@H](Oc2nc(-c3ccccn3)cc3cc(OC)ccc23)CN1C(=O)[C@@H](NC(=O)OC(C)(C)C)C(C)(C)C)C(=O)NS(=O)(=O)C1CC1 (stereo partly shown) [Compound 320]	< 100 nM	< 100 nM	
C=C[C@@H]1C[C@]1(NC(=O)[C@@H]1C[C@@H](Oc2nccc3cc(OC)ccc23)CN1C(=O)[C@H](CC(=O)OC(C)(C)C)NC(=O)OC(C)(C)C)C(=O)NS(=O)(=O)C1CC1 [Compound 139]	< 100 nM	100 to 1000 nM	
C=C[C@@H]1C[C@]1(NC(=O)[C@@H]1CC(Oc2nccc3cc(OC)ccc23)CN1C(=O)[C@@H](NC(=O)OC(C)(C)C)[C@@H](C)O)C(=O)NS(=O)(=O)C1CC1 (stereo partly shown) [Compound 91]	< 100 nM	100 to 1000 nM	
C=CC1C[C@]1(NC(=O)[C@@H]1C[C@@H](Oc2ccnc3ccc(F)cc23)CN1C(=O)[C@@H](NC(=O)OC(C)(C)C)C(C)(C)C)C(=O)NS(=O)(=O)C1CC1 (stereo partly drawn) [Compound 239, BOCNH-P3(L-t-BuGly)-P2[(4R)-(6-fluoroquinoline-4-oxo)-S -proline]-P1(1R,2S VinylAcca)-CONHSO2Cyclopropane]	< 100 nM	< 100 nM	
C=CC1C[C@]1(NC(=O)[C@@H]1C[C@@H](Oc2nnc(-n3ccnc3)c3ccccc23)CN1C(=O)[C@@H](N)C(C)(C)C)C(=O)NS(=O)(=O)C1CC1 (stereo partly drawn) [Compound 197, NH2—P3(L-tert-BuGly)-P2[(4R)-(4-(imidazo-1-yl)phthalazine-1-oxo)-S-proline]-P1(1R,2S Vinyl Acca)-CONHSO2-Cyclopropane]	100 to 1000 nM	10000 to 100000 nM	
C=C[C@@H]1C[C@]1(NC(=O)[C@@H]1CC(Oc2nccc3cc(OC)ccc23)CN1C(=O)[C@@H](NC(=O)OC(C)(C)C(Cl)(Cl)Cl)C(C)(C)C)C(=O)NS(=O)(=O)C1CC1 (stereo partly shown) [Compound 68]	< 100 nM	< 100 nM	
C=C[C@@H]1C[C@]1(NC(=O)[C@@H]1C[C@@H](Oc2nccc3cc(OC)ccc23)CN1C(=O)[C@@H](NC(=O)NC(C)(C)C)[C@H](C)OC)C(=O)NS(=O)(=O)C1CC1 [Compound 101]		< 100 nM	< 100 nM
C=C[C@@H]1C[C@]1(NC(=O)[C@@H]1CC(Oc2nccc3cc(OC)ccc23)CN1C(=O)C([C@@H](C)CC)N(C)C(=O)OC(C)(C)C)C(=O)NS(=O)(=O)C1CC1 (stereo partly shown) [Compound 84]	< 100 nM	100 to 1000 nM	
C=C[C@@H]1C[C@]1(NC(=O)[C@@H]1C[C@@H](Oc2nc(C)cc3ccccc23)CN1C(=O)[C@@H](NC(=O)OC(C)(C)C)C(C)(C)C)C(=O)NS(=O)(=O)C1CC1 [Compound 33]	< 100 nM	< 100 nM	
C=CC1C[C@]1(NC(=O)[C@@H]1C[C@@H](Oc2nc3c(c4ccccc24)CCC3)CN1C(=O)[C@@H](NC(=O)OC(C)(C)C)C(C)(C)C)C(=O)NS(=O)(=O)C1CC1 (stereo partly drawn) [Compound 215, BOCNH-P3(L-t-BuGly)-P2[(1R)-(2,3-dihydro-1 H-4aza -cyclopenta[α]naphthalen-5-yloxy)-S-proline]-P1(1R,2S VinylAcca)-CONHSO2Cyclopropane]	< 100 nM	< 100 nM	
C=C[C@@H]1C[C@]1(NC(=O)[C@@H]1C[C@@H](Oc2nccc3cc(OC)ccc23)CN1C(=O)[C@@H](N)[C@H](C)OC)C(=O)NS(=O)(=O)C1CC1 [Compound 100]		1000 to 10000 nM	100 to 1000 nM
C=CC1C[C@]1(NC(=O)[C@@H]1C[C@@H](Oc2nccc(-c3cccs3)n2)CN1C(=O)[C@@H](NC(=O)OC)C(C)(C)C)C(=O)NS(=O)(=O)C1CC1 (stereo partly shown) [Compound 337]	100 to 1000 nM	1000 to 10000 nM	
